Data as given in patent US5744492A, “Method for inhibiting angiogenesis” (United States of America, priority 1994, dated 1998).

Experiments:
[1] = tested on: chick chorioallantoic membrane; test: Chick chorioallantoic membrane (CAM) angiogenesis assay; assay type: in vivo
Protocol: The chick chorioallantoic or yolk sac membrane (CAM) assays for angiogenesis are important in vivo models of microvessel formation. […] Briefly, fertilized chick embryos with the yolk intact were removed from their shells on day 3 of development and incubated at 37° C.

MMP-2 = test: Northern blot analysis of MMP-2 expression in HUVECs; assay type: cell-based, human; settings: bFGF 10 ng/mL alone, 24 hr
Protocol: (§1) Human umbilical vein endothelial cells (H 930) were generously supplied by Dr. Tom Maciag, American Red Cross (Gaithersburg, Md., USA) and were used between passages 9 and 14 to avoid senescence. HUVECs were grown on fibronectin-coated tissue culture plastic (200 μg/150 mm dish) in complete medium (Medium 199 (M-199) containing 5 U/mL preservative-free heparin, 25.5 μg/mL ECGS, 10% fetal bovine serum and 100 U/mL penicillin, 100 μg/mL streptomycin, and 0.25 μg/mL fungizone).
(§2) HUVECs were grown to confluence as described. Fresh complete medium with test compounds was added to confluent cells for an additional 24 hr incubation. bFGF (10 ng/mL), and/or compound 1 (10 μM) or DMSO control (0.1%) were added as indicated below. Total RNA was isolated by the guanidine isothiocyanate/CsCl method. Aliquots of RNA (7.5 μg) were separated on 1% agarose/formaldehyde gels, passively transferred to GeneScreen Plus membrane in 20X SSC, then cross-linked with ultraviolet light. Blots were prewashed for 1 hr at 42° C. in 1M NaCl, 10 mM Tris, 1 mM EDTA, 0.1% SDS and then hybridized overnight at 42° C. with a formamide-containing buffer (hybridization buffer final: 50% formamide, 4X SSC, 10 mM Tris pH 7.5, IX Denhardt solution, 0.2% SDS, 125 μg/ml salmon sperm DNA) with a random-primed 300 bp insert for MMP-2 (gift of Dr. William Stetler-Stevenson, Laboratory of Pathology, NCI). Blots were washed under stringent conditions then exposed to film. After removal of MMP-2 probe, blots were rehybridized with β-actin probe for quantitation of the RNA load. Results were quantitated by densitometric evaluation of the autoradiographs.
(§3) Lane 1 corresponds to the mRNA from HUVECs treated with DMSO (control). Lanes 2-4 show the mRNA isolated from HUVECs treated with compound 1 (10 μM) alone, compound 1 (10 μM) and bFGF (10 ng/mL), bFGF (10 ng/mL) alone, respectively.

β-actin = test: Northern blot, β-actin probe for quantitation of RNA load in HUVECs; assay type: cell-based, human; settings: bFGF 10 ng/mL alone, 24 hr
Protocol: as §1, §2, §3

[2] = positive control, 60μ (text: 60 μg)

## NC(=O)c1nc[nH]c1N [AIC, aminoimidazole carboxamide, reference compound]
[1]; 10 μM, 48 hr
  % Inhibition (capillary formation in vivo): 16%
  Eggs with avascular zones/total: 4/24
[1]; 10 or 20 μM, 48 hr
  angiogenesis inhibitory effect (in words): inactive

## C[C@]12CCC(=O)C=C1CC[C@@H]1[C@@H]2[C@@H](O)C[C@@]2(C)[C@H]1CC[C@]2(O)C(=O)CO [Hydrocortisone, hydrocortisone, reference compound]
[1]; [2]
  % Inhibition (capillary formation in vivo): 55%
  Eggs with avascular zones/total: 10/18

## bFGF: Recombinant basic fibroblast growth factor (bFGF)
MMP-2
  Corrected values (MMP-2 mRNA corrected for loading): 0.37
  MMP-2 (densitometer): 77 Densitometer units
β-actin
  β-actin (densitometer): 205 Densitometer units
